One assay relates to P. aeruginosa biofilms. Description: Minimum inhibitory concentration, biofilm phase (XTT). It is filed as cell-based, Pseudomonas aeruginosa PAO1. The conditions noted are these: 24 h.
Another assay relates to P. aeruginosa. Description: Minimum inhibitory concentration of tobramycin (dilution series, plating). It is filed as cell-based. The conditions noted are these: Pseudomonas aeruginosa. The method, then: Determination of minimum inhibitory concentration of tobramycin. […] Afterwards, tobramycin was serially diluted into 1 mL of DI H2O and added to the 1 mL aliquots of overnight bacterial culture to the final concentrations of tobramycin ranging from 25 to 250 μg/mL, with 25 μg/mL increments. For the control, 1 mL of sterile DI H2O was added to the aliquot of the culture. The cultures were then grown overnight on a rotary shaker at 37° C. and 150 rpm. The next day, 50 μL aliquots of the overnight cultures were diluted 1:2 with TSB, plated on the TS nutrient agar plates, and grown for 24 hours at 37° C. The next-day plates were checked for the presence of bacterial colonies. […] These findings introduce a starting point for inhibition of established biofilms. This is the MIC for tobramycin alone, without attachment to NPs.

The subject of the next assay is P. aeruginosa biofilm. Description: Biofilm-inhibition through mucin and alginate barriers (in vitro CF biofilm model, disks). It is filed as cell-based, Pseudomonas aeruginosa. More on the design: key to Sensitivity, Mucin barrier / Sensitivity, Alginate barrier / Sensitivity, Both barriers: S for sensitive; I for intermediate; R for resistant. As to conditions: tobramycin 2 mg/mL; for Sensitivity, Alginate barrier / Sensitivity, Both barriers / Sensitivity, Mucin barrier: NPs 50 mg/mL; for Biofilm inhibition (number), Alginate barrier / Biofilm inhibition (number), Both barriers / Biofilm inhibition (number), Mucin barrier: NPs alginate capped 50 mg/mL. The text has this:
Disk diffusion method. The disk diffusion method is one of the most popular approaches to bacterial sensitivity testing due to its low cost and efficiency. The disk, impregnated with a candidate antibiotic drug or compound of interest, is placed on the inoculated agar; which contains a uniform layer of bacteria taken from liquid culture. The disks are commercially available, containing the proper concentrations of antibiotic drugs based on […]. As a low-cost alternative, disks may be prepared using filter paper soaked in the appropriate aqueous concentrations of the antibiotic drugs of interest. The underside of the plate is numbered for each sample to be tested. The cultures are distributed evenly onto a sterile agar plate using a sterile cotton swab to form a uniform layer on the agar. The disks, impregnated with NPs, drug, or NP-drug conjugates are then placed on top of the agar. The cultures are allowed to grow in the previous conditions overnight (16-18 hours). For these experiments, an vitro biofilm model was that would mimic the infection in CF in which there is an alginate and mucin barrier to drug diffusion.

Where [1] appears, read: after magnetic treatment at 24 hours.

Values after ≈ are worked out from the molar mass of the structure shown. Counter-ions that a name gives are not always drawn.

Protocol for P. aeruginosa biofilms: Biofilm phase. P. aeruginosa biofilms were developed in sterile 96 well plates (BD biosciences, USA) as described above. Biofilms were washed twice with PBS and ciprofloxacin was administered in a concentration gradient (two fold). The plates were incubated for 24 h at 37° C. and 80 rpm. At the end of incubation period, XTT reduction assay was performed to quantify the viability of biofilms. […] The assay was performed quadruplicates at three times.

For `O=C(O)c1cn(C2CC2)c2cc(N3CCNCC3)c(F)cc2c1=O` [Cipro, Ciprofloxacin hydrochloride], in the assay with P. aeruginosa biofilms, the “MIC80 of P. aeruginosa biofilms” value is 1 µg/mL.

Take `NC[C@H]1O[C@H](O[C@H]2[C@H](O)[C@@H](O[C@H]3O[C@H](CO)[C@@H](O)[C@H](N)[C@H]3O)[C@H](N)C[C@@H]2N)[C@H](N)C[C@@H]1O` [Tobramycin, tobramycin]: in the assay on P. aeruginosa (biofilm cells), the MIC amounted to 50 µg/mL (≈ 107 µM). The compound further yielded an MIC in the assay with P. aeruginosa (planktonic cells) of 15 µg/mL (≈ 32.1 µM). For the same compound, in the assay on P. aeruginosa biofilm (setting [1]), the “Sensitivity, Alginate barrier” value is “S”; the “Sensitivity, Both barriers” value was “S”; the “Sensitivity, Mucin barrier” value is recorded as “S”; the “Biofilm inhibition (number), Alginate barrier” value is listed as 30. In the assay with P. aeruginosa biofilm (setting [1]), the “Biofilm inhibition (number), Both barriers” value was 20 and the “Biofilm inhibition (number), Mucin barrier” value is 32. In the assay on P. aeruginosa biofilm (no magnetic treatment), the “Sensitivity, Alginate barrier” value is “S”; the “Sensitivity, Both barriers” value is reported as “S”; the “Sensitivity, Mucin barrier” value is given as “S”; the “Biofilm inhibition (number), Alginate barrier” value turned out to be 40. Further, in the assay with P. aeruginosa biofilm (no magnetic treatment), the “Biofilm inhibition (number), Both barriers” value was 40 and the “Biofilm inhibition (number), Mucin barrier” value amounted to 30.
